Results: patent US10995117B2, “Peptide for skin regeneration or wound treatment and use thereof” (KINE SCIENCES CO., LTD., priority 2016, dated 2021)

Key:
B16F10 cells = assay: Melanin production of melanoma cell line; type: cell-based; conditions: 24 hours
Protocol: The color of the skin is determined by an amount of melanin pigment produced by melanoma cells, and many studies have been conducted to improve abnormal pigmentation of the skin. Particularly, excessive pigmentation caused by chronic gashes is considered as a major medical problem, but no definitive treatment method has yet been developed. Thus, in Example 2, the production ability of melanin of a melanoma cell line according to the treatment of the peptide (peptide 1) prepared in Example 1 was evaluated by an experimental method disclosed in the existing document (Life Sci. 2013 Aug. 14; 93(5-6):226-32). The melanoma cell line, B16F10 cells, was cultured in a DMEM medium added with 10% fetal bovine […], and the cultured cells were divided into a 12 well-plate at a concentration of 1×10^5 cells/well. After the culture for 24 hours, α-MSH (10 uM) promoting melanin synthesis and the peptide (1, 10, and 100 ng/ml) of the present invention were treated and cultured again for 24 hours, added with 200 μl of a 1N NaOH solution after washing each well with PBS, and then dissolved at 100° C. for 30 minutes. Thereafter, the absorbance was measured at 405 nm with an ELISA reader to confirm the amount of melanin produced from the melanoma cell line. Meanwhile, an untreated group was used as a control group and a α-MSH-treated group was used as a positive control group.

HaCaT cells = assay: Scratch assay, in vitro wound healing model; type: cell-based, human; conditions: for wound size (quantified) / migration of HaCaT cells: peptide 1 or 10 ng/ml; for migration of HaCaT cells: Mitomycin C pretreated
Protocol: In Example 5, the wound treatment effect according to the treatment of the peptides (peptides 1 and 2) prepared in Example 1 was confirmed through a scratch assay. A human epithelial cell line, HaCaT cells was cultured for 2 hours by adding Mitomycin C (10 ug/ml) in a serum-free medium to […]. After the cells were treated with the peptide (1 or 10 ng/ml) and TGF-β (1 ng/ml) as a positive control group in a medium added with 10% FBS, the migration ability of cells was observed over time and the reduction in wound size was quantified.

tyrosinase = molecular target: T1, tyrosinase (Mus musculus, UniProt P11344); assay: Tyrosinase activity of melanoma cell line (L-DOPA); type: cell-based; conditions: 24 hours
T1 construct: endogenous in cells; host or cells: B16F10 melanoma cells stimulated with alpha-MSH; Triton X-100 lysate supernatant
T1 sequence (P11344 19-533): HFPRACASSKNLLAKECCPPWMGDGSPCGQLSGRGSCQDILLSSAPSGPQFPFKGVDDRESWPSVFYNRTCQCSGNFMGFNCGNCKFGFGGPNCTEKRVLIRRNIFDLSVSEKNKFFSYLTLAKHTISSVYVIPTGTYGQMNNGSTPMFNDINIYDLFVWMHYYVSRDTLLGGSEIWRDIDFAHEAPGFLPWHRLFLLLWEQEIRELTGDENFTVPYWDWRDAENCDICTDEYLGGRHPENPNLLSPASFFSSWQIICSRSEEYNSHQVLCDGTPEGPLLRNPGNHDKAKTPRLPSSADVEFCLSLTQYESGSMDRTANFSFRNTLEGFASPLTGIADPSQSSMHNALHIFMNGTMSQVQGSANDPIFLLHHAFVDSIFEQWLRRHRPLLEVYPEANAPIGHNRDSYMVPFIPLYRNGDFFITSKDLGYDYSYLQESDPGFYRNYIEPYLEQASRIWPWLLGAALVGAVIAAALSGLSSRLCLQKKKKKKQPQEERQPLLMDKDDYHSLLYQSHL
Protocol: Tyrosinase as a rate-regulating enzyme that catalyzes the reaction in the melanin biosynthesis process was known to play a crucial role in regulating the amount of melanin in the cells. Thus, in Example 4, the tyrosinase activity of the melanoma cell line according to the treatment of the peptide (peptide 1) prepared in Example 1 was evaluated by an experimental method disclosed in the existing document (J. Dermatol. Sci. Vol. 57 (2010) 170-177). The melanoma cell line, B16F10 cells, was divided into a 12 well-plate at a concentration of 1×10^5 cells/well and cultured for 24 hours, and then treated with α-MSH ([…]) and the peptide of the present invention (1, 10, 100 ng/ml), cultured for 24 hours again, and then was washed with PBS and suspended in a 50 mM phosphate buffer (pH 6.8) containing 1% Triton X-100 after washing each well with PBS. After vortexing, the cells was frozen at […] for 30 minutes, dissolved at room temperature, and centrifuged at 1000 g for 10 minutes, and then 40 μl of a supernatant and 100 μl of 10 mM L-DOPA were added to a 96 well-plate and reacted at 37° C. Thereafter, the absorbance was measured at 405 nm with an ELISA reader to confirm the tyrosinase activity of the melanoma cell line. Meanwhile, a separate untreated group was used as a control group and a α-MSH-treated group and a Kojic acid-treated group were used as a positive control group.

Balb/c nude mouse [1] = assay: Acute wound animal model, histological change (H&E staining); type: in vivo; conditions: skin tissue on day 5 after acute wound
Protocol: (§1) After an 8-week-old Balb/c nude mouse was anesthetized with Avertin (2.5%), the skin of the animal's back was cut by using a circular punch having a 10 mm diameter to induce an acute wound. The peptide was treated (500 ng/one time) at the site of excision total 5 times at 24-hour intervals at the site of excision and reduction of the wound area over time was measured for 14 days and an EGF was used as a positive control group (10 ug/one time). In this case, the peptide was treated with 20% pluronic F-127 (PBS) in a mixture state and the wound sizes over time were measured and digitized using a digital camera and an ImageJ program and compared with each other.
An acute wound was induced in the same manner as in Example 6-1, and the skin tissue was cut on 5 day after the acute wound was induced to prepare tissue fragments. Thereafter, histological changes according to peptide treatment were observed by H&E staining and observing the H&E staining by a microscope. Meanwhile, an EGF was used as a positive control group.

human dermal fibroblasts = assay: Procollagen secretion of human dermal fibroblasts (PIP EIA Kit); type: cell-based; conditions: peptide 100, 10, 1 ng/ml, versus control group and TGF-treated group
Protocol: (§2) Collagen is a main ingredient of skin connective tissues, and increased collagen expression is essential in wound healing such as a gash or skin regeneration. As a result, in Example 2, the production ability of collagen of human dermal fibroblasts (HDF) according to the treatment of the peptide (peptide 1) prepared in Example 1 was evaluated by an experimental method disclosed in the existing document (J. Biol. Chem. 1993 268(14): 9941-9944). First, the human dermal fibroblasts were cultured in a DMEM medium added with 10% fetal bovine […] (FBS), and the cultured cells were divided into a 6-well plate at a concentration of 2×10^5 cell/well and cultured for 24 hours, and then the medium was replaced with 2% FBS. After 24 hours from this, the cells were treated with the peptide (100, 10, 1 ng/ml) of the present invention, and thereafter, an amount of procollagen secreted to the culture medium was measured by using a Procollagen Type I C-peptide (PIP) EIA Kit, RNA was extracted with a Trizol reagent, and then the expression of Col1A1 (collagen type I, alpha 1) mRNA of the human dermal fibroblasts was confirmed through real-time PCR. Meanwhile, a separately untreated group (Control) was used as a control group and a TGF-treated group (TGF-) was used as a positive control group.

[2] = tested on: Col1A1 (collagen type I, alpha 1) mRNA; assay: Col1A1 mRNA expression of human dermal fibroblasts (real-time PCR); type: cell-based; conditions: at a concentration of 10 ng/ml or more
Protocol: as §2

Balb/c nude mouse [3] = assay: Acute wound animal model, change in wound size; type: in vivo; conditions: 10 mm punch wound, 500 ng/one time, 5 times at 24-hour intervals, 14 days
Protocol: as §1

**Q.** Which “production amount of melanin” value (B16F10 cells; α-MSH (10 uM) plus peptide 1, 10, 100 ng/ml, no significant difference from non-α-MSH-treated group) does the source give for REGRT (peptide 1) here?
**A.** greatly reduced

**Q.** What about the “wound size (quantified)” value (HaCaT cells; HaCaT cells) of the same substance?
**A.** significant reduction

**Q.** And the “migration of HaCaT cells” value (HaCaT cells)?
**A.** increased in a peptide concentration-dependent manner

**Q.** What about the “tyrosinase activity of the melanoma cell line” value (tyrosinase; B16F10 cells, 10, 100 ng/ml, no significant difference from Kojic acid-treated group) of the same substance?
**A.** greatly reduced

**Q.** What about the epithelialization (Balb/c nude mouse [1]) of the same substance?
**A.** actively progressed

**Q.** And the “thicknesses of epidermis and dermis layers” value (Balb/c nude mouse [1])?
**A.** larger than those of a PBS negative control group

**Q.** And the “secretion amount of procollagen” value (human dermal fibroblasts)?
**A.** increased compared to the control group and the TGF-treated group

**Q.** And the “expression of Col1A1” value [2]?
**A.** significantly increased

**Q.** Which results are given for REGRTREGRT (peptide 2)?
**A.** wound reduction effect at low concentration (HaCaT cells; HaCaT cells, 1 ng/ml): definite wound reduction effect; wound size effect compared with peptide 1 (HaCaT cells; HaCaT cells, 1 or 10 ng/ml): more remarkable; wound size (quantified) (HaCaT cells; HaCaT cells): significant reduction; migration of HaCaT cells (HaCaT cells): increased in a peptide concentration-dependent manner; wound treatment effect compared with peptide 1 (Balb/c nude mouse [3]): excellent effect as compared to the case treated with the peptide 1; epithelialization (Balb/c nude mouse [1]): actively progressed; thicknesses of epidermis and dermis layers (Balb/c nude mouse [1]): larger than those of a PBS negative control group

**Q.** Which results are given for α-MSH [reference compound]?
**A.** amount of melanin produced (B16F10 cells; α-MSH (10 uM) alone): a large amount of melanin was produced; tyrosinase activity of the melanoma cell line (tyrosinase; B16F10 cells): greatly increased
